# Laboratory results reported in patent publication US5702923A, “Method of making a lactococcal bacteriocin” (Quest International Flavors & Food Ingredients Company, a …, priority 1992, dated 1997).
# Experiments:
# Listeria monocytogenes = assay: Spot assay of filter sterilized supernatant (LL-1 broth) on indicator lawn; type: cell-based; details: as crude filter sterilized broth or dried powder from the broth, not purified
# Experimental: To produce the bacteriocin, 500 ml of MRS broth (Difco) was inoculated at 1% with an 8 hour old culture of LLA 1.0 grown in MRS broth (Difco, Detroit, Mich.) and was incubated statically at 32° C. for 24 hours. After 24 hours the cells were removed by centrifugation at 16,000×g for 20 minutes at 4° C. The supernatant was filtered through a 0.22 micron (pore size) filter (Millipore Corp. Bedford, Mass.). The supernatant was assayed for bacteriocin activity by spotting 5 microliters of this supernatant material onto various media overlaid with soft agar seeded with different indicator cells. These assay plates were incubated at 35° C. or 32° C., respectively. After 24 hours the plates were examined, clear zones associated with the spot were recorded as positive (growth inhibition) and negative (no growth inhibition).
# L. monocytogenes 69 = assay: Inhibition of Listeria, LL-1 compared with nisin; type: cell-based, Listeria monocytogenes; set-up: key: + = Inhibition; - = No inhibition; details: 370 IU/ml, nisin purified from the broth
# Text: This is shown by the following data in Table 5.
# strain NRRL-B-18535 = assay: Sensitivity of the producer strain to nisin; type: cell-based, Lactococcus lactis
# Text: Inhibitory spectrum of LL-1. The plate assay system was used to evaluate the spectrum of bacteriocin activity. […] Strains of Streptococcus mutans, S. sanguis, S. faecalis and Listeria monocytogenes were not sensitive in this test. The strain NRRL-B-18535 was resistant to nisin.
substance,measurement,setting,value
nisin,"activity against Listeria monocytogenes, in words",Listeria monocytogenes,not effective
same,Inhibition of L. monocytogenes 69,L. monocytogenes 69,-
same,sensitivity of strain NRRL-B-18535 to nisin,strain NRRL-B-18535,resistant
